Reference: ChEMBL document CHEMBL1201862, “PubChem BioAssay data set” (2004)
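All cell lines were grown in 96-well plates and treated with compound for 48 hours. Here, GI50 denotes the concentration required for 50% inhibition of growth.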 Activity calls are given as the source filed them. No stated cut-off is given here; in the data, active = GI50 up to about 1.1 µM and inactive = higher.

Legend:
Assay in all cases: DTP human tumour cell line panel, 48 h
OVCAR-8 = test system: OVCAR-8
COLO 205 = test system: COLO 205
SNB-75 = test system: SNB-75
SK-OV-3 = test system: SK-OV-3
CCRF-CEM = test system: CCRF-CEM
U-251 = test system: U-251
NCI-H226 = test system: NCI-H226
MOLT-4 = test system: MOLT-4
SW-620 = test system: SW-620
Malme-3M = test system: Malme-3M
OVCAR-5 = test system: OVCAR-5
KM12 = test system: KM12
OVCAR-4 = test system: OVCAR-4
HOP-92 = test system: HOP-92
CAKI-1 = test system: CAKI-1
RPMI-8226 = test system: RPMI-8226
IGROV-1 = test system: IGROV-1

Measured: GI50

CSc1ccc2c(cc1=O)[C@@H](NC(=O)c1cc(O)c(O)c(O)c1)CCc1cc(O)c(O)c(O)c1-2
inactive: OVCAR-8 24 µM | COLO 205 28 µM | SNB-75 23.4 µM | SK-OV-3 > 100 µM | CCRF-CEM 3.33 µM | U-251 18.6 µM | NCI-H226 16 µM | MOLT-4 18.5 µM | SW-620 17.1 µM | Malme-3M 30 µM | OVCAR-5 15 µM | KM12 20.9 µM | OVCAR-4 8.93 µM

CCCCCCc1cc2c(C)c(C)c(=O)oc2cc1OCCCOc1cc2oc(=O)c(C)c(C)c2cc1CCCCCC
inactive: OVCAR-8 > 100 µM | SK-OV-3 > 100 µM | CCRF-CEM > 100 µM | U-251 > 100 µM | MOLT-4 > 100 µM | SW-620 > 100 µM | HOP-92 > 100 µM | CAKI-1 > 100 µM | Malme-3M > 100 µM | OVCAR-5 > 100 µM | RPMI-8226 > 100 µM | KM12 > 100 µM | IGROV-1 > 100 µM

COc1ccccc1NC(=O)C(=O)C1C(=O)Nc2ccccc2[S+]1[O-] (centres undefined)
inactive: OVCAR-8 > 100 µM | COLO 205 > 100 µM | SNB-75 > 100 µM | SK-OV-3 > 100 µM | CCRF-CEM > 100 µM | U-251 > 100 µM | NCI-H226 > 100 µM | MOLT-4 > 100 µM | SW-620 > 100 µM | CAKI-1 > 100 µM | Malme-3M > 100 µM | OVCAR-5 > 100 µM | KM12 > 100 µM | IGROV-1 > 100 µM | OVCAR-4 > 100 µM

CC#CC1/C(=C\C(=O)OC)CCCC1O (centres undefined)
inactive: OVCAR-8 > 100 µM | SNB-75 > 100 µM | SK-OV-3 > 100 µM | CCRF-CEM > 100 µM | U-251 > 100 µM | NCI-H226 > 100 µM | MOLT-4 > 100 µM | SW-620 > 100 µM | CAKI-1 > 100 µM | Malme-3M > 100 µM | OVCAR-5 > 100 µM | KM12 > 100 µM | OVCAR-4 > 100 µM

N#CC1CCCCC1NC1(C#N)CCCCC1 (centres undefined)
inactive: OVCAR-8 > 100 µM | COLO 205 > 100 µM | SNB-75 > 100 µM | SK-OV-3 > 100 µM | CCRF-CEM > 100 µM | U-251 > 100 µM | NCI-H226 > 100 µM | MOLT-4 > 100 µM | SW-620 > 100 µM | CAKI-1 > 100 µM | Malme-3M > 100 µM | RPMI-8226 > 100 µM | KM12 > 100 µM | IGROV-1 > 100 µM

COC(=O)C(C(=O)C(=O)Nc1ccccc1C)c1nc2ccc([N+](=O)[O-])cc2nc1O (centres undefined)
inactive: OVCAR-8 > 100 µM | COLO 205 > 100 µM | SNB-75 > 100 µM | SK-OV-3 > 100 µM | CCRF-CEM > 100 µM | U-251 > 100 µM | NCI-H226 > 100 µM | MOLT-4 > 100 µM | SW-620 > 100 µM | CAKI-1 > 100 µM | Malme-3M > 100 µM | OVCAR-5 > 100 µM | RPMI-8226 > 100 µM | KM12 > 100 µM | IGROV-1 > 100 µM | OVCAR-4 > 100 µM

COc1cc(CC2C(=O)OCC2[C@@H](OC(C)=O)c2ccc3c(c2)OCO3)c(Br)c(OC)c1OC (some centres undefined)
inactive: OVCAR-8 > 100 µM | COLO 205 36.8 µM | SNB-75 28.5 µM | SK-OV-3 > 100 µM | CCRF-CEM 44.7 µM | MOLT-4 35.2 µM | SW-620 58.3 µM | HOP-92 12 µM | CAKI-1 > 100 µM | Malme-3M 37.9 µM | KM12 31.5 µM | IGROV-1 80.2 µM | OVCAR-4 90.6 µM

CCOC(=O)C(C)(C)Oc1ccc2c(C)c(-c3ccc(Cl)cc3)c(=O)oc2c1
inactive: OVCAR-8 > 100 µM | COLO 205 42.6 µM | SNB-75 35.8 µM | CCRF-CEM 14.5 µM | U-251 42.4 µM | NCI-H226 14.9 µM | MOLT-4 20 µM | SW-620 > 100 µM | Malme-3M 33.3 µM | RPMI-8226 22.6 µM | IGROV-1 75.9 µM | OVCAR-4 > 100 µM
